Read-outs that look alike come from different tables or passages of the source.
Target: T1, FAAH (Rattus norvegicus, UniProt P97612)
T1 construct: Preparation of Rat Brain Membranes Preparations (FAAH Enzyme Solution); from tissue; host or cells: rat cerebrum (brain membrane preparation)
T1 sequence (P97612 1-579): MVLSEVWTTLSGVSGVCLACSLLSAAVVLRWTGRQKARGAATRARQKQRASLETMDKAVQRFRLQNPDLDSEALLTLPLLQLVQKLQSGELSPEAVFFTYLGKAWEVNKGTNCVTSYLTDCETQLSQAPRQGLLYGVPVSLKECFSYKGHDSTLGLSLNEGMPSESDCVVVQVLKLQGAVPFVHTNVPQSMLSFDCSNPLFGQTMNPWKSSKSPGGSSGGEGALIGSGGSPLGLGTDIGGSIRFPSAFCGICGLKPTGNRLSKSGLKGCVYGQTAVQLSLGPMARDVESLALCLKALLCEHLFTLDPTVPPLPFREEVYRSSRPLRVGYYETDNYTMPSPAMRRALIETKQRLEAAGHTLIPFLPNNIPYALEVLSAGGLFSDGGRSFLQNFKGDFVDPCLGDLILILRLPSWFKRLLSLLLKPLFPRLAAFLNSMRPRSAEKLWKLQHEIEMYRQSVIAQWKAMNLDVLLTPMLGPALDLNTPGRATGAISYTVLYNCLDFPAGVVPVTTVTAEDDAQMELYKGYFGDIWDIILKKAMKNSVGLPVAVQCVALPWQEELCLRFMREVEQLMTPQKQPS
Assay: Determination of FAAH inhibitory activity in rat (rat brain membrane preparations, [3H]-anandamide hydrolysis)
Format: biochemical
Settings: for inhibition at 0.1 µM: read-out: FAAH Inhibition, Inhibition Rate at 100 nM; for IC50: test substance 0.1 nM to 1 μM
Outline: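 Compounds tested from 0.1 nM to 1 μM to derive IC50 against FAAH hydrolysis in rat brain membrane preparations (100 μg/mL). A 10-min 37 °C preincubation was followed by 10 min with [3H]-anandamide (2 nM) mixed with 2 μM unlabelled anandamide. Radioactive ethanolamine was extracted into the water/methanol layer and counted.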

[1] = rat brain membrane preparations, 100 nM test substance
[2] = rat brain membrane preparations, read-out: FAAH Inhibition IC50

Compound	inhibition at 0.1 µM [1] [%]	IC50 [2] [nM]	IC50 (FAAH Inhibition IC50, rat brain membrane preparations) [nM]	inhibition at 0.1 µM [%]
COc1cccc(-c2ncc3c(n2)n(C)c(=O)n3C(=O)N(C)CCCl)c1 [Example 103, N-(2-Chloroethyl)-2-(3-methoxyphenyl)-N,9-dimethyl-8-oxo-8,9-dihydro-7H-purine-7-carboxamide]			7	100
COc1cccc(-c2ncc3c(n2)n(C)c(=O)n3C(=O)N(C)CCc2nc(-c3ccccc3)no2)c1 [Example 104, 2-(3-Methoxyphenyl)-N,9-dimethyl-8-oxo-N-[2-(3-phenyl-1,2,4-oxadiazol-5-yl)ethyl]-8,9-dihydro-7H-purine-7-carboxamide]	101	3		
COc1cccc(-c2ncc3c(n2)n(C)c(=O)n3C(=O)N(C)CCc2ccc(Cl)c(Cl)c2)c1 [Example 105, N-[2-(3,4-Dichlorophenyl)ethyl]-2-(3-methoxyphenyl)-N,9-dimethyl-8-oxo-8,9-dihydro-7H-purine-7-carboxamide]	108	1		
COc1cccc(-c2ncc3c(n2)n(C)c(=O)n3C(=O)N(C)CCC2=CCCCC2)c1 [Example 106, N-[2-(Cyclohex-1-en-1-yl)ethyl]-2-(3-methoxyphenyl)-N,9-dimethyl-8-oxo-8,9-dihydro-7H-purine-7-carboxamide]	110	1		
COc1cccc(-c2ncc3c(n2)n(C)c(=O)n3C(=O)N(C)CCC2CCCCC2)c1 [Example 109, N-(2-Cyclohexylethyl)-2-(3-methoxyphenyl)-N,9-dimethyl-8-oxo-8,9-dihydro-7H-purine-7-carboxamide]	103	2		
COc1cccc(-c2ncc3c(n2)n(C)c(=O)n3C(=O)N(C)CCc2ccc(Cl)cc2Cl)c1 [Example 110, N-[2-(2,4-Dichlorophenyl)ethyl]-2-(3-methoxyphenyl)-N,9-dimethyl-8-oxo-8,9-dihydro-7H-purine-7-carboxamide]	103	3		
COc1cccc(-c2ncc3c(n2)n(C)c(=O)n3C(=O)N(C)CCc2ccc(N(C)C)cc2)c1 [Example 113, N-{2-[4-(Dimethylamino)phenyl]ethyl}-2-(3-methoxyphenyl)-N,9-dimethyl-8-oxo-8,9-dihydro-7H-purine-7-carboxamide]	103	3		
COc1cccc(-c2ncc3c(n2)n(C)c(=O)n3C(=O)N(C)CCc2ccccn2)c1 [Example 114, 2-(3-Methoxyphenyl)-N,9-dimethyl-8-oxo-N-[2-(pyridin-2-yl)ethyl]-8,9-dihydro-7H-purine-7-carboxamide]	103	2		
COc1cccc(-c2ncc3c(n2)n(C)c(=O)n3C(=O)N(C)CCc2ccncc2)c1 [Example 115, 2-(3-Methoxyphenyl)-N,9-dimethyl-8-oxo-N-[2-(pyridin-4-yl)ethyl]-8,9-dihydro-7H-purine-7-carboxamide]	103	5		
COc1cccc(-c2ncc3c(n2)n(C)c(=O)n3C(=O)N(C)CCOCC2CC2)c1 [Example 116, N-[2-(Cyclopropylmethoxy)ethyl]-2-(3-methoxyphenyl)-N,9-dimethyl-8-oxo-8,9-dihydro-7H-purine-7-carboxamide]	110	2		
COc1cccc(-c2ncc3c(n2)n(C)c(=O)n3C(=O)N(C)CCC2CCOCC2)c1 [Example 117, 2-(3-Methoxyphenyl)-N,9-dimethyl-8-oxo-N-[2-(tetrahydro-2H-pyran-4-yl)ethyl]-8,9-dihydro-7H-purine-7-carboxamide]	107	4		
Cn1c(=O)n(C(=O)N2CCN(c3ccccc3)CC2)c2cnc(-c3ccccc3)nc21 [Example 120, 9-Methyl-2-phenyl-7-[(4-phenylpiperazin-1-yl)carbonyl]-7,9-dihydro-8H-purine-8-one]	101	11		
COc1ccccc1N1CCN(C(=O)n2c(=O)n(C)c3nc(-c4ccccc4)ncc32)CC1 [Example 122, 7-{[4-(2-Methoxyphenyl)piperazin-1-yl]carbonyl}-9-methyl-2-phenyl-7,9-dihydro-8H-purine-8-one]	97	35		
Cn1c(=O)n(C(=O)N2CCN(c3ccc(F)cc3)CC2)c2cnc(-c3ccccc3)nc21 [Example 123, 7-{[4-(4-Fluorophenyl)piperazin-1-yl]carbonyl}-9-methyl-2-phenyl-7,9-dihydro-8H-purine-8-one]	101	4		

Continued, in another order:

inhibition at 0.1 µM [1] [%]	IC50 [2] [nM]	Compound	IC50 (FAAH Inhibition IC50, rat brain membrane preparations) [nM]	inhibition at 0.1 µM [%]
100	6	COc1cccc(-c2ncc3c(n2)n(C)c(=O)n3C(=O)N2CCC(CCc3ccc(F)cc3)CC2)c1 [Example 96, 7-({4-[2-(4-Fluorophenyl)ethyl]piperidin-1-yl}carbonyl)-2-(3-methoxyphenyl)-9-methyl-7,9-dihydro-8H-purine 8-one]		
99	37	COc1cccc(-c2ncc3c(n2)n(C)c(=O)n3C(=O)N2CCN(C3CCCCC3)CC2)c1 [Example 97, 7-[(4-Cyclohexylpiperazin-1-yl)carbonyl]-2-(3-methoxyphenyl)-9-methyl-7,9-dihydro-8H-purine-8-one]		
93	40	COc1cccc(-c2ncc3c(n2)n(C)c(=O)n3C(=O)N2CCN(C3CCCC3)CC2)c1 [Example 98, 7-[(4-Cyclopentylpiperazin-1-yl)carbonyl]-2-(3-methoxyphenyl)-9-methyl-7,9-dihydro-8H-purine-8-one]		
100	7	COc1cccc(-c2ncc3c(n2)n(C)c(=O)n3C(=O)N2CCN(CC(F)(F)F)CC2)c1 [Example 99, 2-(3-Methoxyphenyl)-9-methyl-7-{[4-(2,2,2-trifluoroethyl)piperazin-1-yl]carbonyl}-7,9-dihydro-8H-purine-8-one]		
100	9	COc1cccc(-c2ncc3c(n2)n(C)c(=O)n3C(=O)N2CCN(CCC3CCCCC3)CC2)c1 [Example 100, 7-{[4-(2-Cyclohexylethyl)piperazin-1-yl]carbonyl}-2-(3-methoxyphenyl)-9-methyl-7,9-dihydro-8H-purine-8-one]		
102	7	COc1cccc(-c2ncc3c(n2)n(C)c(=O)n3C(=O)N2CCC(COc3ccccc3)CC2)c1 [Example 101, 2-(3-Methoxyphenyl)-9-methyl-7-{[4-(phenoxymethyl)piperidin-1-yl]carbonyl}-7,9-dihydro-8H-purine-8-one]		
101	5	COc1cccc(-c2ncc3c(n2)n(C)c(=O)n3C(=O)N2CCC(=Cc3ccc(Cl)cc3)CC2)c1 [Example 102, 7-{[4-(4-Chlorobenzylidene)piperidin-1-yl]carbonyl}-2-(3-methoxyphenyl)-9-methyl-7,9-dihydro-8H-purine-8-one]		
101	7	CCCN(C)C(=O)n1c(=O)n(C)c2nc(-c3cccc(OC)c3)ncc21 [Example 107, 2-(3-Methoxyphenyl)-N,9-dimethyl-8-oxo-N-propyl-8,9-dihydro-7H-purine-7-carboxamide]		
94	22	COc1cccc(-c2ncc3c(n2)n(C)c(=O)n3C(=O)N(C)CC(C)C)c1 [Example 108, 2-(3-Methoxyphenyl)-N,9-dimethyl-N-(2-methylpropyl)-8-oxo-8,9-dihydro-7H-purine-7-carboxamide]		
46	60	COc1cccc(-c2ncc3c(n2)n(C)c(=O)n3C(=O)N(C)CCN2CCOCC2)c1 [Example 111]		
103	4	COc1cccc(-c2ncc3c(n2)n(C)c(=O)n3C(=O)N2CCC(/C=C/c3ccc(Cl)cc3)CC2)c1 [Example 112, 7-({4-[(E)-2-(4-Chlorophenyl)ethenyl]piperidin-1-yl}carbonyl)-2-(3-methoxyphenyl)-9-methyl-7,9-dihydro-8H-purine-8-one]		
103	5	COc1ccc(CCC2CCN(C(=O)n3c(=O)n(C)c4nc(-c5cccc(OC)c5)ncc43)CC2)cc1 [Example 118, 2-(3-Methoxyphenyl)-7-({4-[2-(4-methoxyphenyl)ethyl]piperidin-1-yl}carbonyl)-9-methyl-7,9-dihydro-8H-purine-8-one]		
100	7	COCCC1CCN(C(=O)n2c(=O)n(C)c3nc(-c4cccc(OC)c4)ncc32)CC1 [Example 119, 7-{[4-(2-Methoxyethyl)piperidin-1-yl]carbonyl}-2-(3-methoxyphenyl)-9-methyl-7,9-dihydro-8H-purine-8-one]		
98	42	COc1cccc(N2CCN(C(=O)n3c(=O)n(C)c4nc(-c5ccccc5)ncc43)CC2)c1 [Example 121, 7-{[4-(3-Methoxyphenyl)piperazin-1-yl]carbonyl}-9-methyl-2-phenyl-7,9-dihydro-8H-purine-8-one]		

Reference: patent US8735406B2, “8-oxodihydropurine derivative” (Dainippon Sumitomo Pharma Co., Ltd., priority 2009, dated 2014)
